In one series the test system is opioid receptors. As to the kind of experiment: Stimulation of [35S]GTPγS binding (agonist/antagonist activity). Format: biochemical, guinea pig.

Counter-ions that a name gives are not always drawn.

The melting point is the temperature of the solid-liquid transition. The compound `C=CCN1CC[C@H](N(c2ccccc2)c2ccc(C(=O)N(CC)CC)cc2)[C@H](C)C1` (racemic) (as salt: hydrochloride) gave a melting point of 221 to 225.5 °C. Same read-out and setting: for `C=CCN1CC[C@@H](N(c2ccccc2)c2ccc(C(=O)N(CC)CC)cc2)[C@H](C)C1` (racemic) (as salt: hydrochloride) the value was 177 to 178 °C. On to `CN1CCC2(c3cccc(O)c3)Cc3ccccc3CC2(C)C1` (racemic) [Compound 7, (±)-1,2,3,4,4a,5,10,10a-octahydro-4a-(3-hydroxyphenyl)-2,10a-dimethylbenzo-[g]isoquinoline], for which the “stimulation of [35S]GTPγS binding (agonist activity)” value with opioid receptors (concentrations as high as 1 μM) is “neither the N-methyl derivative 7 nor the N-phenethyl derivative 8 stimulated”. On to `CC1C2CCCC1(c1cccc(O)c1)CCN2CCc1ccccc1` (stereo not drawn) [Compound 5c, 5-(3-Hydroxyphenyl)-9β-methyl-2-(2′-phenylethyl)-2-azabicyclo[3.3.1]nonane], for which the agonist/antagonist character result with opioid receptors ([35S]GTPγS functional assay) was “pure antagonists at the μ, δ, and κ opioid receptors”. For the same compound, in the series with opioid receptors (up to concentrations of 10 μM), the “stimulation of GTP binding (agonist activity)” value is given as “neither 5b nor 5c stimulated GTP binding”.

(Values after US6531481B2 (priority 1998, dated 2003).)
